Source: patent publication US9029384B2, “Phosphatidylinositol 3-kinase inhibitors” (Gilead Calistoga LLC, priority 2012, dated 2015)
Read-outs that look alike come from different tables or passages of the source.

What was measured:
PI3Kδ = biological target: T1, PI3Kδ (Homo sapiens, UniProt O00329); assay: Enzymatic activity of PI3K isoforms, TR-FRET assay (PIP3 formation); type: biochemical; conditions: PI3Kδ; TR-FRET, 2×Km ATP, 10 μM PIP2; read-out: IC50
T1 construct: made in house
Method in brief: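 Recombinant heterodimeric class I PI3K; PIP3 product measured by TR-FRET competition with labelled PIP3 for Eu-GRP-1 PH domain. Reaction 30 min at 25 °C, stopped with 10 mM EDTA.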

basophils = assay: Basophil activation in human whole blood (Flow2 CAST kit, CD63 positive cells); type: cell-based
Method in brief: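 Human whole blood (K2-EDTA) preincubated 60 minutes at 37° C with compound serial dilutions or DMSO (0.3% final), then stimulated with anti-FcεRI mAb or fMLP and stained for CD63/CCR3. Percent CD63+ among ≥200 CCR3-high basophils by flow cytometry, normalized to stimulated vehicle as 100%. EC50 from four-parameter fits, geometric means in nM, concentrations corrected for reagent dilution.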

[1] = Hepatocyte stability, 1% final DMSO, 2 μM substrate (t1/2^a); type: in vitro ADME; conditions: human, cryopreserved hepatocytes, TA with 1% final DMSO, 2 μM substrate, samples at 0, 1, 2, 4 hours; read-out: human hepatocyte t½^a
Experimental: This assay was used to evaluate the metabolic stability of test articles (TA) following incubation in cryopreserved hepatocytes by monitoring parent drug disappearance via […]. The TA with 1% final DMSO concentration was incubated with 1 million hepatocytes/ml at 2 μM substrate in duplicate. The incubation was carried out at 37° C. with 5% CO2 and saturating humidity.

[2] = Hepatocyte stability, 0.01% final DMSO, 1 μM substrate (t1/2^b); type: in vitro ADME; conditions: human, hepatocytes, TA with 0.01% final DMSO
Experimental: Alternatively, assay reagents and/or conditions can be modified in determining the inhibitory activities to PI3K isomers. In additional studies, similar assay using TA and 0.01% final DMSO concentration were incubated with 1 million hepatocytes/mL at 1 μM substrate in duplicate. The incubation was carried out at 37° C. with 5% CO2 and saturating humidity.

[3] = Homo sapiens, basophils activated with anti-FcεRI mAb or fMLP, geometric mean
[4] = 1 μM substrate, samples at 0, 1, 3, 6 hours, read-out: human hepatocyte t½^b

T1 sequence (O00329 whole entry, canonical isoform): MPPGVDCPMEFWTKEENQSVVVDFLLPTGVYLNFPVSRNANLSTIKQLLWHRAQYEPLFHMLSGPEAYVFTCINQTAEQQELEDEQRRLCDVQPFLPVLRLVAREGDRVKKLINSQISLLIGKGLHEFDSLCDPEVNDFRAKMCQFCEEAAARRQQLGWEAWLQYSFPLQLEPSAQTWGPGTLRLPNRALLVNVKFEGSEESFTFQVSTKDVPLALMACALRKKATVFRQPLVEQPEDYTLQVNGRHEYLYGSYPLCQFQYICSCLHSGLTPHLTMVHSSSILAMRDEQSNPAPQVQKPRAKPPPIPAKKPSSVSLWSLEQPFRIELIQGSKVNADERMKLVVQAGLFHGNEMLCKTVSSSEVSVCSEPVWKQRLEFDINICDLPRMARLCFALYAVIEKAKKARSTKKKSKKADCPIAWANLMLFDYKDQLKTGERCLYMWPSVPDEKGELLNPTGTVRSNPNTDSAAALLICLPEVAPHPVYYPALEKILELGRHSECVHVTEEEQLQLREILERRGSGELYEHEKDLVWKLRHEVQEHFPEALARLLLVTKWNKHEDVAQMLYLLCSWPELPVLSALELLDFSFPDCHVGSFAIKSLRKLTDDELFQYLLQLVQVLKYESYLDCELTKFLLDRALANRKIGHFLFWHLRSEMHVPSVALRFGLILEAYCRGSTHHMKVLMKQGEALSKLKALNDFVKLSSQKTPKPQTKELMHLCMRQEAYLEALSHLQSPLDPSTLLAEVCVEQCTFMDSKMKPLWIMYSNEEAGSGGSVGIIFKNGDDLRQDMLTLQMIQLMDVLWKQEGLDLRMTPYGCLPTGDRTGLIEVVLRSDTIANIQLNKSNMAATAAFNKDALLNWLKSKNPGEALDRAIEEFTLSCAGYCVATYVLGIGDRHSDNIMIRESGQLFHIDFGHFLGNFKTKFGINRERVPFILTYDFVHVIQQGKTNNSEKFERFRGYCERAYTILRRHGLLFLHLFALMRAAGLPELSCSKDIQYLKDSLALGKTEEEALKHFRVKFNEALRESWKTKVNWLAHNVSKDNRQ
T1 sequence (P27986 whole entry partner, canonical isoform): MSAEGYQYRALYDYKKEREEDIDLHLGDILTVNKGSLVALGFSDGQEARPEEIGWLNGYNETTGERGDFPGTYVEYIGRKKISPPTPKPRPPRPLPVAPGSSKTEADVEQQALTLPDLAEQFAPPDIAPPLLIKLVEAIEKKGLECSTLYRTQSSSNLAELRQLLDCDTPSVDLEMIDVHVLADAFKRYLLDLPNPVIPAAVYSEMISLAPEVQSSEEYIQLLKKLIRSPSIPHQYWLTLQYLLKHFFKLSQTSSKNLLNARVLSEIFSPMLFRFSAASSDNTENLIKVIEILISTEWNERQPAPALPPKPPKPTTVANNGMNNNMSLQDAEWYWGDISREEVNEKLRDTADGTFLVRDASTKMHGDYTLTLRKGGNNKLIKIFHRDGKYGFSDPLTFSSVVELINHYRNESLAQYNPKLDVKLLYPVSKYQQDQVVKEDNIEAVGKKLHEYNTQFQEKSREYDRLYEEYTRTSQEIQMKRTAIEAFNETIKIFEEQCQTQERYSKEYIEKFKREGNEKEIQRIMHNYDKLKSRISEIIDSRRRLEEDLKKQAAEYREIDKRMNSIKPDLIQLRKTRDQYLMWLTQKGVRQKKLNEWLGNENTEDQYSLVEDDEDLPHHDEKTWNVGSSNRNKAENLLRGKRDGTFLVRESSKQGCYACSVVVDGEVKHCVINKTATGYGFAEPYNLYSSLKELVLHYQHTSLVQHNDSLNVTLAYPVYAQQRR

Row | SMILES | IC50 (PI3Kδ) | EC50 (basophils; [3]) | half-life at 2 μM [1] | half-life at 1 μM [2, 4] | EC50 (basophils; Homo sapiens, basophil activation) | half-life at 1 μM ([2]; human hepatocytes, read-out: t1/2^b) | EC50 (basophils; basophils activated with anti-FcεRI mAb or fMLP, geometric mean)
1 | Cc1ccc(Cl)c2c(=O)n(-c3ccccc3)c(C(C)Nc3nc(N)nc(N)c3C#N)nc12 (single isomer, unassigned) [Compound 4a] | < 1 nM | 1 to 10 nM | 6 to 10 h |  |  |  | 
2 | Cc1ccc(Cl)c2c(=O)n(-c3cccc(Cl)c3)c(C(C)Nc3nc(N)nc(N)c3C#N)nc12 (single isomer, unassigned) [Compound 5a] | < 1 nM | 1 to 10 nM | 1 to 3 h |  |  |  | 
3 | CC(Nc1nc(N)nc(N)c1C#N)c1nc2c(F)ccc(Cl)c2c(=O)n1-c1cc(F)cc(F)c1 (single isomer, unassigned) [Compound 15a] | < 1 nM | < 1 nM | 3 to 6 h |  |  |  | 
4 | Cc1cccc2nc(C(C)Nc3nc(N)nc(N)c3C#N)n(-c3cc(F)cc(F)c3)c(=O)c12 (single isomer, unassigned) [Compound 18a] | < 1 nM | < 1 nM | 3 to 6 h |  |  |  | 
5 | CCC(Nc1nc(N)nc(N)c1C#N)c1nc2cccc(C)c2c(=O)n1-c1cc(F)cc(F)c1 (single isomer, unassigned) [Compound 19a] | < 1 nM | 1 to 10 nM | 3 to 6 h |  |  |  | 
6 | CC(Nc1nc(N)nc(N)c1C#N)c1nc2cccc(Cl)c2c(=O)n1-c1cc(F)cc(C#N)c1 (single isomer, unassigned) [Compound 20a] | 1 to 10 nM | 1 to 10 nM | 6 to 10 h |  |  |  | 
7 | Cc1cccc2nc(C(C)Nc3nc(N)nc(N)c3C#N)n(-c3cc(F)cc(C#N)c3)c(=O)c12 (single isomer, unassigned) [Compound 24a] | 1 to 10 nM | 1 to 10 nM | 6 to 10 h |  |  |  | 
8 | Cc1ccc(F)c2nc(C(C)Nc3nc(N)nc(N)c3C#N)n(-c3cc(F)cc(F)c3)c(=O)c12 (single isomer, unassigned) [Compound 25a] | < 1 nM | < 1 nM | 1 to 3 h |  |  |  | 
9 | Cc1ccc(F)c2nc(C(C)Nc3nc(N)nc(N)c3C#N)n(-c3cc(F)cc(C#N)c3)c(=O)c12 (single isomer, unassigned) [Compound 31a] | 1 to 10 nM | 1 to 10 nM | 6 to 10 h |  |  |  | 
10 | Cc1ccc(F)c2c(=O)n(-c3cc(F)cc(F)c3)c(C(C)Nc3nc(N)nc(N)c3C#N)nc12 (single isomer, unassigned) [Compound 35a] | 1 to 10 nM | 1 to 10 nM | 6 to 10 h |  |  |  | 
11 | CC(Nc1nc(N)nc(N)c1C#N)c1nc2cccc(F)c2c(=O)n1-c1cccc(C(F)(F)F)c1 (single isomer, unassigned) [Compound 40a] | 1 to 10 nM | 1 to 10 nM | 6 to 10 h |  |  |  | 
12 | CC(Nc1nc(N)nc(N)c1C#N)c1nc2cccc(Cl)c2c(=O)n1-c1cc(Cl)cc(Cl)c1 (single isomer, unassigned) [Compound 41a] | 1 to 10 nM | 10 to 50 nM | 3 to 6 h |  |  |  | 
13 | CC(Nc1nc(N)nc(N)c1C#N)c1nc2cccc(Cl)c2c(=O)n1-c1cc(F)cc(Cl)c1 (single isomer, unassigned) [Compound 43a] | 1 to 10 nM | 1 to 10 nM | 3 to 6 h |  |  |  | 
14 | CC(Nc1nc(N)nc(N)c1C#N)c1nc2c(F)ccc(Cl)c2c(=O)n1-c1cc(F)cc(C#N)c1 (single isomer, unassigned) [Compound 48a] | 10 to 50 nM | > 50 nM | > 10 h |  |  |  | 
15 | CC(Nc1nc(N)nc(N)c1C#N)c1nc2c(Cl)ccc(Cl)c2c(=O)n1-c1ccccc1 (single isomer, unassigned) [Compound 50a] | < 1 nM | < 1 nM | 6 to 10 h |  |  |  | 
16 | COc1cc(OC)cc(-n2c(C(C)Nc3nc(N)nc(N)c3C#N)nc3cccc(Cl)c3c2=O)c1 (single isomer, unassigned) [Compound 51a] | 1 to 10 nM | 1 to 10 nM | 3 to 6 h |  |  |  | 
17 | CCC(Nc1nc(N)nc(N)c1C#N)c1nc2cccc(C(F)F)c2c(=O)n1-c1cc(F)cc(F)c1 (single isomer, unassigned) [Compound 53a] | 1 to 10 nM | 10 to 50 nM | > 10 h |  |  |  | 
18 | CC(Nc1nc(N)nc(N)c1C#N)c1nc2cccc(Cl)c2c(=O)n1-c1cc(F)cc(C(F)F)c1 (single isomer, unassigned) [Compound 55a] | < 1 nM | 1 to 10 nM | 6 to 10 h |  |  |  | 
19 | CCC(Nc1nc(N)nc(N)c1C#N)c1nc2cccc(Cl)c2c(=O)n1-c1cc(F)cc(C(F)F)c1 (single isomer, unassigned) [Compound 66a] | 1 to 10 nM | 1 to 10 nM | 3 to 6 h |  |  |  | 
20 | CCC(Nc1nc(N)nc(N)c1C#N)c1nc2c(Cl)cccc2c(=O)n1-c1cc(F)cc(F)c1 (single isomer, unassigned) [Compound 72a] | 10 to 50 nM | > 50 nM | 6 to 10 h |  |  |  | 
21 | Cc1ccc(Cl)c2c(=O)n(-c3cc(F)cc(F)c3)c(C(C)Nc3nc(N)nc(N)c3C#N)nc12 (single isomer, unassigned) [Compound 73a] | 1 to 10 nM | < 1 nM | 3 to 6 h |  |  |  | 
22 | CC(Nc1nc(N)nc(N)c1C#N)c1nc2c(F)ccc(Cl)c2c(=O)n1-c1cccc(C#N)c1 (single isomer, unassigned) [Compound 181a] | 1 to 10 nM | < 1 nM |  | 6 to 10 h |  |  | 
23 | CC(Nc1nc(N)nc(N)c1C#N)c1nc2cccc(F)c2c(=O)n1-c1cccc(F)c1 (single isomer, unassigned) [Compound 182a] | 1 to 10 nM | 1 to 10 nM |  | > 10 h | < 2 nM | > 20 h | 
24 | CC(Nc1nc(N)nc(N)c1C(N)=O)c1nc2cccc(Cl)c2c(=O)n1-c1ccccc1 (single isomer, unassigned) [Compound 183a] | < 1 nM | 10 to 50 nM |  | 6 to 10 h |  |  | 
25 | COc1cccc(-n2c(C(C)Nc3nc(N)nc(N)c3C#N)nc3cccc(Cl)c3c2=O)c1 (single isomer, unassigned) [Compound 185a] | < 1 nM | < 1 nM |  | 1 to 3 h |  |  | 
26 | Cc1ccc(C(F)F)cc1-n1c(C(C)Nc2nc(N)nc(N)c2C#N)nc2cccc(Cl)c2c1=O (single isomer, unassigned) [Compound 188a-2] | < 1 nM |  |  | 1 to 3 h |  |  | < 1 nM
27 | COc1cc(C(F)F)cc(-n2c(C(C)Nc3nc(N)nc(N)c3C#N)nc3cccc(Cl)c3c2=O)c1 (single isomer, unassigned) [Compound 190a] | 1 to 10 nM | 10 to 50 nM |  | 1 to 3 h |  |  | 
28 | CC(Nc1nc(N)nc(N)c1C#N)c1nc2cccc(Cl)c2c(=O)n1-c1cc(F)cc(OC(F)(F)F)c1 (single isomer, unassigned) [Compound 193a] | 1 to 10 nM | 1 to 10 nM |  | 1 to 3 h |  |  | 
29 | C[C@H](Nc1nc(N)nc(N)c1C#N)c1nc2cccc(F)c2c(=O)n1-c1cccc(C(F)F)c1 [Compound 121a, (S)-2,4-diamino-6-(1-(3-(3-(difluoromethyl)phenyl)-5-fluoro-4-oxo-3,4-dihydroquinazolin-2-yl)ethylamino)pyrimidine-5-carbonitrile] | 1 to 10 nM | 1 to 10 nM |  | 3 to 6 h |  |  | 
30 | C[C@H](Nc1nc(N)nc(N)c1C#N)c1nc2c(C#N)cc(F)cc2c(=O)n1-c1cccc(F)c1 [Compound 154a, (S)-2-(1-((2,6-diamino-5-cyanopyrimidin-4-yl)amino)ethyl)-6-fluoro-3-(3-fluorophenyl)-4-oxo-3,4-dihydroquinazoline-8-carbonitrile] | 1 to 10 nM | 1 to 10 nM |  | > 10 h |  |  | 
